In US20240033237A1, “USE OF A-KETOGLUTARATE IN MANUFACTURE OF MEDICAMENT” (TONGJI UNIVERSITY, priority 2019, published 2024):

What was measured:
NF-κB signaling pathway = experiment: Activation of NF-κB signaling pathway in IL-1β-stimulated chondrocytes (whole-genome sequencing, nuclear P65 western blot); assay type: cell-based, mouse
Description: Mouse chondrocytes were obtained from 7-day-old C57BL/6 mice (Shanghai Slac laboratory animal Co., Ltd.), and the procedure was as follows: under aseptic surgical conditions, bilateral knee cartilages of C57 mice were carefully stripped and digested with 0.2% neutral collagenase (Serva, Germany) for 8 h; cell precipitates were obtained by centrifugation, and the cells were resuspended in modified Eagle medium (DMEM) (Gibco, USA) containing 10% FBS, inoculated in culture dishes, and cultured with high-sugar DMEM medium (containing 10% FBS, 100 U/mL penicillin and 100 mg/L streptomycin) at 37° C. in a 5% CO2 constant temperature incubator. The medium was changed for the first time at 48 h. […] The cells were collected by centrifugation and resuspended, and the concentration was adjusted for inoculation in culture dishes. The cells were subcultured by the above method, and the obtained cells were labeled as P1, P2, P3 generations, etc. P1 generation mouse chondrocytes cultured in Embodiment 1 were subjected to western blot analysis through operations including the following: • 1. Collecting of protein samples: The culture medium was sucked out, and the cells were washed twice with PBS at 4° C. and then dried. […] The protein concentration was determined by the BCA Protein Quantification Kit. […]

skin hair follicles = experiment: Regeneration level of skin hair follicles in mice, intradermal injection, histological staining; assay type: in vivo; details: 12-month-old mice, 4 weeks after injection, vs PBS group
Description: The skin on the back of posterior limbs of 12-month-old aged mice was taken, and the treatment group was intradermally injected with PBS-diluted α-KG (1 μl of dimethyl-α-KG dissolved in 4 μl of PBS). A sham operation was performed and PBS was injected as a control. Histological staining was performed to observe the changes of skin hair follicles at 4 weeks after injection.

COC(=O)CCC(=O)C(=O)OC [α-KG, dimethyl-α-ketoglutarate] was tested, and the “expression of P65 in the NF-κB signaling pathway in the nucleus” value (NF-κB signaling pathway; western blot, IL-1β 0 min, 15 min, 30 min, 60 min, 7 mM α-KG) was “significantly inhibited”, the “expression of many genes in the NF-κB signaling pathway” value (NF-κB signaling pathway; whole-genome sequencing, IL-1β stimulation, α-KG complemented) was “suppressed” and the “number of skin hair follicles” value (skin hair follicles) was “significantly increased”.
